Reference: patent US10766865B2, “PKM2 modulators and methods for their use” (TOLERO PHARMACEUTICALS, INC., priority 2012, dated 2020)

Target: PKM2 (Homo sapiens, UniProt P14618)
Experiment: PKM2 Biochemical Assay
Settings: for Max. Resp.: % maximum response in a biochemical assay as compared with Fructose 1,6-bisphosphate
Description: Full length, human PKM2 enzyme was obtained from Promab (Richmond, Calif.). All reagents, unless otherwise noted, were obtained from Sigma (St. Louis, Mo.).
Compounds were pre-incubated with 2 nM PKM2 in reaction buffer (50 mM Tris-HCl, pH 8.0, 200 mM KCl, 30 mM MgCl2, 2 mM DTT, 5% DMSO) for 30 min at ambient temperature. […] After 30 min, ATP formation was measured by Kinase Glo (Promega, Madison, Wis.), and AC50 values were determined using Prism (GraphPad Software, Inc., La Jolla, Calif.).

PKM2, sequence (P14618 whole entry): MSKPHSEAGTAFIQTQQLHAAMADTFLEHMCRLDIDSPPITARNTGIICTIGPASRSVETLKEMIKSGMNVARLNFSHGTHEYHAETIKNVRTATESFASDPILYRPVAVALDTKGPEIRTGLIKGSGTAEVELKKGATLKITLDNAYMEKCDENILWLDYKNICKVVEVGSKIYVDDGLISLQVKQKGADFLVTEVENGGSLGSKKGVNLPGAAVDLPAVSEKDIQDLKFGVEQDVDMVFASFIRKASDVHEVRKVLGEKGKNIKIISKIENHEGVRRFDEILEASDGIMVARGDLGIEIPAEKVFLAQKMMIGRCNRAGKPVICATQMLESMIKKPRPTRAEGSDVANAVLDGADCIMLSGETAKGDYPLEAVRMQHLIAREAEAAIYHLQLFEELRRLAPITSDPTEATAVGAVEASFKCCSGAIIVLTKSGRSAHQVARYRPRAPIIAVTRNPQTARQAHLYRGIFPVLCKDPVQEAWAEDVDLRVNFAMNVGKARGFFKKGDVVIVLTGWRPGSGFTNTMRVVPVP

SMILES	Max. Resp. [%]	AC50 [nM]
CC1CCCN(CCN(Cc2ccccc2F)C(=O)c2cc(C(F)(F)F)n[nH]2)C1 (stereo not shown) [Example 201, N-(2-fluorobenzyl)-3-(trifluoromethyl)-N-(2-(3-methylpiperidin-1-yl)ethyl)-1H-pyrazole-5-carboxamide]	100	
CC1CCCCN1CCN(Cc1cc(N)ccc1Cl)C(=O)c1cc(C(F)(F)F)n[nH]1 (stereo not shown) [Example 202, N-(5-amino-2-chlorobenzyl)-3-(trifluoromethyl)-N-(2-(2-methylpiperidin-1-yl)ethyl)-1H-pyrazole-5-carboxamide]	100	
CC1CCCCN1CCN(Cc1ccccc1F)C(=O)c1cc(C(F)(F)F)n[nH]1 (stereo not shown) [Example 203, N-(2-fluorobenzyl)-3-(trifluoromethyl)-N-(2-(2-methylpiperidin-1-yl)ethyl)-1H-pyrazole-5-carboxamide]	100	
CCN(CCN(Cc1ccccc1Cl)C(=O)c1cc(C(F)(F)F)n[nH]1)C(C)C [Example 204, N-(2-chlorobenzyl)-N-(2-(ethyl-isopropylamino)ethyl)-3-(trifluoromethyl)-1H-pyrazole-5-carboxamide]	53	
O=C(c1cc(C(F)(F)F)n[nH]1)N(CCN1CCC(F)(F)CC1)Cc1ccccc1Cl [Example 205, N-(2-chlorobenzyl)-3-(trifluoromethyl)-N-(2-(4,4-difluoropiperidin-1-yl)ethyl)-1H-pyrazole-5-carboxamide]	100	
O=C(c1cc(C(F)(F)F)n[nH]1)N(CCN1CCCC1)Cc1cccc2[nH]cc(F)c12 [Example 206, N-((3-fluoro-1H-indol-4-yl)methyl)-3-(trifluoromethyl)-N-(2-(pyrrolidin-1-yl)ethyl)-1H-pyrazole-5-carboxamide]	100	
O=C(c1cc(C(F)(F)F)n[nH]1)N(CCN1CCCCCC1)Cc1cccc2nc[nH]c12 [Example 208, N-((1H-benzo[d]imidazol-7-yl)methyl)-N-(2-(azepan-1-yl)ethyl)-3-(trifluoromethyl)-1H-pyrazole-5-carboxamide]	100	
CCCN(CC)CCN(Cc1ccccc1Cl)C(=O)c1cc(C(F)(F)F)n[nH]1 [Example 209, N-(2-chlorobenzyl)-N-(2-(ethyl-propylamino)ethyl)-3-(trifluoromethyl)-1H-pyrazole-5-carboxamide]	100	
O=C(c1cc(C(F)(F)F)n[nH]1)N(CCN1CCCCCC1)Cc1cccc([N+](=O)[O-])c1Cl [Example 210, N-(2-chloro-3-nitrobenzyl)-N-(2-(azepan-1-yl)ethyl)-3-(trifluoromethyl)-1H-pyrazole-5-carboxamide]	100	
CC1CCCC(C)N1CCN(Cc1ccccc1Cl)C(=O)c1cc(C(F)(F)F)n[nH]1 (stereo not shown) [Example 212, N-(2-chlorobenzyl)-3-(trifluoromethyl)-N-(2-(2,6-dimethylpiperidin-1-yl)ethyl)-1H-pyrazole-5-carboxamide]	53	
COc1ccc(N)cc1CN(CCN1CCCCCC1)C(=O)c1cc(C(F)(F)F)n[nH]1 [Example 215, N-(5-amino-2-methoxybenzyl)-N-(2-(azepan-1-yl)ethyl)-3-(trifluoromethyl)-1H-pyrazole-5-carboxamide]	100	
CS(=O)(=O)N1CCCC(CCN(Cc2ccccc2Cl)C(=O)c2cc(C(F)(F)F)n[nH]2)C1 (stereo not shown) [Example 228, N-(2-chlorobenzyl)-N-(2-(1-(methylsulfonyl)piperidin-3-yl)ethyl)-3-(trifluoromethyl)-1H-pyrazole-5-carboxamide]	100	
O=C(c1cc(C(F)(F)F)n[nH]1)N(CCc1ccc(O)cc1)Cc1ccccc1Cl [Example 230, N-(2-chlorobenzyl)-N-(4-hydroxyphenethyl)-3-(trifluoromethyl)-1H-pyrazole-5-carboxamide]	100	
CCN1CCCC1CN(Cc1ccccc1Cl)C(=O)c1cc(C(F)(F)F)n[nH]1 (stereo not shown) [Example 231, N-(2-chlorobenzyl)-N-((1-ethylpyrrolidin-2-yl)methyl)-3-(trifluoromethyl)-1H-pyrazole-5-carboxamide]	65	148
O=C(c1cc(C(F)(F)F)n[nH]1)N(Cc1ccccc1Cl)CC1CCCN1 (stereo not shown) [Example 232, N-(2-chlorobenzyl)-3-(trifluoromethyl)-N-((pyrrolidin-2-yl)methyl)-1H-pyrazole-5-carboxamide]	85	
CCCN(CC)CCN(Cc1c(N)cccc1F)C(=O)c1cc(C(F)(F)F)n[nH]1 [Example 240, N-(2-fluoro-6-aminobenzyl)-N-(2-(ethyl-propylamino)ethyl)-3-(trifluoromethyl)-1H-pyrazole-5-carboxamide]	100	
O=C(c1cc(Br)n[nH]1)N(Cc1ccc(O)cc1F)CC1CCC1 [Example 245]	100	

The next lines start with the values.

Max. Resp. [%]	AC50 [nM]	SMILES
75		Nc1ccc(CN(CCN2CCCCCC2)C(=O)c2cc(C(F)(F)F)n[nH]2)c(Cl)c1 [Example 207, N-(4-amino-2-chlorobenzyl)-N-(2-(azepan-1-yl)ethyl)-3-(trifluoromethyl)-1H-pyrazole-5-carboxamide]
100		O=C(c1cc(C(F)(F)F)n[nH]1)N(CCN1CCCCCC1)Cc1c(Cl)cccc1[N+](=O)[O-] [Example 211, N-(2-chloro-6-nitrobenzyl)-N-(2-(azepan-1-yl)ethyl)-3-(trifluoromethyl)-1H-pyrazole-5-carboxamide]
100		Nc1cccc(CN(CCN2CCCCCC2)C(=O)c2cc(C(F)(F)F)n[nH]2)c1Cl [Example 213, N-(3-amino-2-chlorobenzyl)-N-(2-(azepan-1-yl)ethyl)-3-(trifluoromethyl)-1H-pyrazole-5-carboxamide]
100		Nc1ccc(F)c(CN(CCN2CCCCCC2)C(=O)c2cc(C(F)(F)F)n[nH]2)c1 [Example 214, N-(5-amino-2-fluorobenzyl)-N-(2-(azepan-1-yl)ethyl)-3-(trifluoromethyl)-1H-pyrazole-5-carboxamide]
100		Nc1cccc(CN(CCN2CCCCCC2)C(=O)c2cc(C(F)(F)F)n[nH]2)c1F [Example 216, N-(3-amino-2-fluorobenzyl)-N-(2-(azepan-1-yl)ethyl)-3-(trifluoromethyl)-1H-pyrazole-5-carboxamide]
100		COc1c(N)cccc1CN(CCN1CCCCCC1)C(=O)c1cc(C(F)(F)F)n[nH]1 [Example 217, N-(3-amino-2-methoxybenzyl)-N-(2-(azepan-1-yl)ethyl)-3-(trifluoromethyl)-1H-pyrazole-5-carboxamide]
100		Nc1cccc(Cl)c1CN(CCN1CCCCCC1)C(=O)c1cc(C(F)(F)F)n[nH]1 [Example 218, N-(2-amino-6-chlorobenzyl)-N-(2-(azepan-1-yl)ethyl)-3-(trifluoromethyl)-1H-pyrazole-5-carboxamide]
100		O=C(c1cc(C(F)(F)F)n[nH]1)N(CCN1CCC(O)CC1)Cc1ccccc1Cl [Example 219, N-(2-chlorobenzyl)-3-(trifluoromethyl)-N-(2-(4-hydroxypiperidin-1-yl)ethyl)-1H-pyrazole-5-carboxamide]
100		O=C(c1cc(C(F)(F)F)n[nH]1)N(CCN1CCCC(O)C1)Cc1ccccc1Cl (stereo not shown) [Example 220, N-(2-chlorobenzyl)-3-(trifluoromethyl)-N-(2-(3-hydroxypiperidin-1-yl)ethyl)-1H-pyrazole-5-carboxamide]
60		CC(CN(Cc1c(N)cccc1Cl)C(=O)c1cc(C(F)(F)F)n[nH]1)N1CCCC1 (stereo not shown) [Example 221, N-(2-amino-6-chlorobenzyl)-3-(trifluoromethyl)-N-(2-(pyrrolidin-1-yl)propyl)-1H-pyrazole-5-carboxamide]
100		Nc1cccc(Cl)c1CN(CCN1CCCC1)C(=O)c1cc(C(F)(F)F)n[nH]1 [Example 222, N-(2-amino-6-chlorobenzyl)-3-(trifluoromethyl)-N-(2-(pyrrolidin-1-yl)ethyl)-1H-pyrazole-5-carboxamide]
100		Nc1cccc(Cl)c1CN(CCN1CCS(=O)(=O)CC1)C(=O)c1cc(C(F)(F)F)n[nH]1 [Example 224, N-(2-amino-6-chlorobenzyl)-N-(2-(4-dioxothiomorpholino)ethyl)-3-(trifluoromethyl)-1H-pyrazole-5-carboxamide]
100		Nc1cccc(Cl)c1CN(CCN1CCCC(O)C1)C(=O)c1cc(C(F)(F)F)n[nH]1 (stereo not shown) [Example 225, N-(2-amino-6-chlorobenzyl)-3-(trifluoromethyl)-N-(2-(3-hydroxypiperidin-1-yl)ethyl)-1H-pyrazole-5-carboxamide]
75		Nc1cccc(Cl)c1CN(CC1CCN1)C(=O)c1cc(C(F)(F)F)n[nH]1 (stereo not shown) [Example 233, N-(2-amino-6-chlorobenzyl)-N-((azetidin-2-yl)methyl)-3-(trifluoromethyl)-1H-pyrazole-5-carboxamide]
100		COC1CCN(CCN(Cc2c(N)cccc2Cl)C(=O)c2cc(C(F)(F)F)n[nH]2)C1 (stereo not shown) [Example 235, N-(2-amino-6-chlorobenzyl)-3-(trifluoromethyl)-N-(2-(3-methoxypyrrolidin-1-yl)ethyl)-1H-pyrazole-5-carboxamide]
100		COC1CCCN(CCN(Cc2c(N)cccc2Cl)C(=O)c2cc(C(F)(F)F)n[nH]2)C1 (stereo not shown) [Example 237, N-(2-amino-6-chlorobenzyl)-3-(trifluoromethyl)-N-(2-(3-methoxypiperidin-1-yl)ethyl)-1H-pyrazole-5-carboxamide]
100		Nc1cccc(Cl)c1CN(CCN1CC[C@H](F)C1)C(=O)c1cc(C(F)(F)F)n[nH]1 [Example 241, N-(2-amino-6-chlorobenzyl)-3-(trifluoromethyl)-N-(2-((S)-3-fluoropyrrolidin-1-yl)ethyl)-1H-pyrazole-5-carboxamide]
100		Nc1cccc(Cl)c1CN(CCN1CC[C@@H](F)C1)C(=O)c1cc(C(F)(F)F)n[nH]1 [Example 242, N-(2-amino-6-chlorobenzyl)-3-(trifluoromethyl)-N-(2-((R)-3-fluoropyrrolidin-1-yl)ethyl)-1H-pyrazole-5-carboxamide]
100		Nc1cccc(Cl)c1CN(CCN1CCCC(F)CC1)C(=O)c1cc(C(F)(F)F)n[nH]1 (stereo not shown) [Example 243, N-(2-amino-6-chlorobenzyl)-N-(2-(4-fluoroazepan-1-yl)ethyl)-3-(trifluoromethyl)-1H-pyrazole-5-carboxamide]
